Laboratory results reported in US20240140980A1, “HETEROCYCLIC INHIBITORS OF CD73 FOR TREATMENT OF DISEASE” (Teon Therapeutics, Inc., priority 2022, published 2024).

What was measured:
CD73 [1] = target: T1, CD73 (Homo sapiens (Human), UniProt P21589); test: Cellular CD73 Assay (primary human CD3+ T-cells with AMP); assay type: cell-based; settings: primary human peripheral blood CD3+ T-cells, 40 μM AMP, 3 days; readout (cell division or IL-2/IFN-γ) not specified for the column
Procedure: Primary human peripheral blood CD3+ T-cells obtained from AllCells were thawed and cultured for 24 h in a complete growth medium (Stemline T-cell expansion medium, Sigma #S1694) supplemented with 1 mM L-glutamine, 50 IU/mL of IL-2 and 25 μL/mL of Dynabeads™ Human T-Activator CD3/CD28 (Thermo-Fisher #11161D) at a density of 10^6 cells/mL. Then, cells were labeled with 1.25 μM Cell Trace Violet (Thermo-Fisher #C34557) according to the manufacturer's instructions. Labeled cells were resuspended in a warm complete growth medium and plated onto U-bottom 96-well plates at 25,000 cells/90 μL/well. Next, 500× serial compound dilutions were prepared in DMSO in a 8-point 3-fold titration and then diluted 1:25 into a complete growth medium, generating 20× compound dilutions. Then, 5 μL of 20× compound dilutions was added to the cells and incubated for 60 min at 37° C. After this, 5 μL of 20×AMP was added to a final concentration of 40 μM. Treated cells were cultured for 3 days at 37° C., 5% CO2. Thereafter, cells were gently pelleted by centrifugation, and supernatants were collected and frozen at −80° C. for subsequent cytokine analysis. Cell pellets were resuspended in 100 μL of PBS/2% FBS and gently pipetted up and down to produce a single cell suspension. Then, 3 μL of 7-AAD (BD Biosciences #559925) was added to each well and plates were incubated on ice for 5 min. Cells were then washed and resuspended in 150 μL of PBS/2% FBS. Divided and non-divided live cells were quantified by Attune NxT flow cytometer. Cell Trace Violet-labeled cells cultured without a T-cell activator were used as the nondividing control.
For IL-2 and IFN-γ cytokine analysis, supernatants were thawed on ice, diluted 1:10 in the buffer. The concentration of cytokines was determined using Meso Scale Discovery according to the manufacturer's instructions (Meso Scale Discovery). The EC50 values were determined using a four-parameter nonlinear regression curve fit (GraphPad Prism Version 9.2, GraphPad Software Inc., San Diego, CA).

CD73 [2] = target: T1, CD73; test: Biochemical CD73 Assay (Malachite Green free phosphate detection); settings: recombinant human CD73 2 nM, AMP 40 μM, 45 min at 37° C.
Procedure: Activity of recombinant CD73 was measured by quantification of free phosphate using the Malachite Green detection system (R&D Systems #DY996). Test compounds were solubilized in DMSO and dispensed into 384-well polystyrene plates in a 8-point 3× titration in duplicates. Then, 10 μL of 4 nM human CD73 enzyme (Novoprotein #C446) in phosphate-free assay buffer (10 mM HEPES, pH 7.4, 125 mM NaCl, 1 mM KCl, 10 mM glucose, 2 mM MgCl2) was added to the plates. The compound and enzyme were incubated for 15 min at RT. Then, 10 μL of 80 μM AMP (Sigma Aldrich #A1752) in the assay buffer was added and the reaction mixture was incubated for 45 min at 37° C. The final concentrations of CD73 and AMP in the reaction were 2 nM and 40 μM, respectively. The reaction was stopped by adding 5 μL of Malachite Green reagent A and incubating for 10 min at RT, followed by addition of 5 μL of Malachite Green reagent B and incubation for 20 min at RT. Absorbance was then read at 620 nm with the Flexstation spectrophotometer (Molecular Devices). The IC50 values were determined using a four-parameter nonlinear regression curve fit.

T1 sequence (P21589 27-574): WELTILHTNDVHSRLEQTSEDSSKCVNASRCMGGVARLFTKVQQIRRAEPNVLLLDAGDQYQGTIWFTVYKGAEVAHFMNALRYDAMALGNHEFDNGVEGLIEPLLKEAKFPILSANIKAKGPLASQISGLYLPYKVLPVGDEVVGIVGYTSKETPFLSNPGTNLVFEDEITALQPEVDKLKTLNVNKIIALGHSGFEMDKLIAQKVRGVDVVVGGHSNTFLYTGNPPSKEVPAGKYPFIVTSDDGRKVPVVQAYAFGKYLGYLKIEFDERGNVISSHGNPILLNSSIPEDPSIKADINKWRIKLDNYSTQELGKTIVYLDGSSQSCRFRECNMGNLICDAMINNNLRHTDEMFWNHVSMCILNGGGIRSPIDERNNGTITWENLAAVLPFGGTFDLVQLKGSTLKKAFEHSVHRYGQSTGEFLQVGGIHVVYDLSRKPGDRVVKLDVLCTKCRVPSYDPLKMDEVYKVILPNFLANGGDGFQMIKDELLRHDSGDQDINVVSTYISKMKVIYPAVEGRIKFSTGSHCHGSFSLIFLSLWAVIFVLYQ

| Structure (SMILES) | EC50 (CD73 [1]) | IC50 (CD73 [2]) |
| --- | --- | --- |
| COC[C@@](OC[C@H]1O[C@@H](n2ncc3c(NC4CCCC4)nc(Cl)nc32)[C@H](O)[C@@H]1O)(C(=O)N=S(C)(=O)NC(=O)C(C)C)P(=O)(O)O (single isomer, unassigned) [Example 16] | 1.34 nM | 0.78 nM |
| CNC(=O)N[S@](C)(=O)=NC(=O)[C@@](COC)(OC[C@H]1O[C@@H](n2ncc3c(NC4CCCC4)nc(Cl)nc32)[C@H](O)[C@@H]1O)P(=O)(O)O [Example 9, ((S)-2-(((2R,3S,4R,5R)-5-(6-Chloro-4-(cyclopentylamino)-1H-pyrazolo[3,4-d]pyrimidin-1-yl)-3,4-dihydroxytetrahydrofuran-2-yl)methoxy)-3-methoxy-1-(((R)-methyl(3-methylureido)(oxo)-λ^6-sulfaneylidene)amino)-1-oxopropan-2-yl)phosphonic Acid] | 1.57 nM | 0.9 nM |
| COC[C@@](OC[C@H]1O[C@@H](n2ncc3c(NC4CCCC4)nc(Cl)nc32)[C@H](O)[C@@H]1O)(C(=O)N=[S@@](C)(N)=O)P(=O)(O)O [Example 3, ((2S)-1-((Amino(methyl)(oxo)-λ^6-sulfaneylidene)amino)-2-(((2R,3S,4R,5R)-5-(6-chloro-4-(cyclopentylamino)-1H-pyrazolo[3,4-d]pyrimidin-1-yl)-3,4-dihydroxytetrahydrofuran-2-yl)methoxy)-3-methoxy-1-oxopropan-2-yl)phosphonic Acid] | 1.5 nM | 1 nM |
| CCC(=O)NS(C)(=O)=NC(=O)[C@@](COC)(OC[C@H]1O[C@@H](n2ncc3c(NC4CCCC4)nc(Cl)nc32)[C@H](O)[C@@H]1O)P(=O)(O)O (stereo partly drawn) [Example 14, ((2S)-2-(((2R,3S,4R,5R)-5-(6-Chloro-4-(cyclopentylamino)-1H-pyrazolo[3,4-d]pyrimidin-1-yl)-3,4-dihydroxytetrahydrofuran-2-yl)methoxy)-3-methoxy-1-((methyl(oxo)(propionamido)-λ^6-sulfaneylidene)amino)-1-oxopropan-2-yl)phosphonic Acid] | 1.15 nM | 0.74 nM |
| COC[C@@](OC[C@H]1O[C@@H](n2ncc3c(NC4CCCC4)nc(Cl)nc32)[C@H](O)[C@@H]1O)(C(=O)N=S(C)(=O)NC(=O)C(C)C)P(=O)(O)O (single isomer, unassigned) [Example 15] | 7.78 nM | 6.3 nM |
| COC[C@@](OC[C@H]1O[C@@H](n2ncc3c(NC4CCCC4)nc(Cl)nc32)[C@H](O)[C@@H]1O)(C(=O)N=[S@](C)(=O)NC(=O)C1CC1)P(=O)(O)O [Example 12, ((S)-2-(((2R,3S,4R,5R)-5-(6-Chloro-4-(cyclopentylamino)-1H-pyrazolo[3,4-d]pyrimidin-1-yl)-3,4-dihydroxytetrahydrofuran-2-yl)methoxy)-1-(((S)-cyclopropanecarboxamido(methyl)(oxo)-λ^6-sulfaneylidene)amino)-3-methoxy-1-oxopropan-2-yl)phosphonic Acid] | 0.92 nM | 0.45 nM |
| COC[C@@](OC[C@H]1O[C@@H](n2ncc3c(NC4CCCC4)nc(Cl)nc32)[C@H](O)[C@@H]1O)(C(=O)N=[S@](C)(=O)NC(=O)OC)P(=O)(O)O [Example 18, ((S)-2-(((2R,3S,4R,5R)-5-(6-Chloro-4-(cyclopentylamino)-1H-pyrazolo[3,4-d]pyrimidin-1-yl)-3,4-dihydroxytetrahydrofuran-2-yl)methoxy)-3-methoxy-1-(((S)-((methoxycarbonyl)amino)(methyl)(oxo)-λ^6-sulfaneylidene)amino)-1-oxopropan-2-yl)phosphonic Acid] | 1 nM | 0.5 nM |
| COC[C@@](OC[C@H]1O[C@@H](n2ncc3c(NC4CCCC4)nc(Cl)nc32)[C@H](O)[C@@H]1O)(C(=O)N=[S@](C)(=O)NC(C)=O)P(=O)(O)O [Example 17, ((S)-1-(((S)-Acetamido(methyl)(oxo)-λ^6-sulfaneylidene)amino)-2-(((2R,3S,4R,5R)-5-(6-chloro-4-(cyclopentylamino)-1H-pyrazolo[3,4-d]pyrimidin-1-yl)-3,4-dihydroxytetrahydrofuran-2-yl)methoxy)-3-methoxy-1-oxopropan-2-yl)phosphonic Acid] | 0.98 nM | 0.58 nM |

More lines, in order of falling EC50 (CD73 [1]), values ahead:

| EC50 (CD73 [1]) | IC50 (CD73 [2]) | Structure (SMILES) |
| --- | --- | --- |
| 0.9 nM | 0.77 nM | COC[C@@](OC[C@H]1O[C@@H](n2ncc3c(NC4CCCC4)nc(Cl)nc32)[C@H](O)[C@@H]1O)(C(=O)N=[S@@](C)(=O)NC(=O)C1CC1)P(=O)(O)O [Example 11, ((S)-2-(((2R,3S,4R,5R)-5-(6-Chloro-4-(cyclopentylamino)-1H-pyrazolo[3,4-d]pyrimidin-1-yl)-3,4-dihydroxytetrahydrofuran-2-yl)methoxy)-1-(((R)-cyclopropanecarboxamido(methyl)(oxo)-λ^6-sulfaneylidene)amino)-3-methoxy-1-oxopropan-2-yl)phosphonic Acid] |
| 0.72 nM | 0.31 nM | CNC(=O)N[S@@](C)(=O)=NC(=O)[C@@](COC)(OC[C@H]1O[C@@H](n2ncc3c(NC4CCCC4)nc(Cl)nc32)[C@H](O)[C@@H]1O)P(=O)(O)O [Example 10, ((S)-2-(((2R,3S,4R,5R)-5-(6-Chloro-4-(cyclopentylamino)-1H-pyrazolo[3,4-d]pyrimidin-1-yl)-3,4-dihydroxytetrahydrofuran-2-yl)methoxy)-3-methoxy-1-(((S)-methyl(3-methylureido)(oxo)-λ^6-sulfaneylidene)amino)-1-oxopropan-2-yl)phosphonic Acid] |
| 0.68 nM | 0.7 nM | CCC(=O)NS(C)(=O)=NC(=O)[C@@](COC)(OC[C@H]1O[C@@H](n2ncc3c(NC4CCCC4)nc(Cl)nc32)[C@H](O)[C@@H]1O)P(=O)(O)O (stereo partly drawn) [Example 13, ((2S)-2-(((2R,3S,4R,5R)-5-(6-Chloro-4-(cyclopentylamino)-1H-pyrazolo[3,4-d]pyrimidin-1-yl)-3,4-dihydroxytetrahydrofuran-2-yl)methoxy)-3-methoxy-1-((methyl(oxo)(propionamido)-λ^6-sulfaneylidene)amino)-1-oxopropan-2-yl)phosphonic Acid] |
| 0.51 nM | 0.94 nM | COC[C@@](OC[C@H]1O[C@@H](n2ncc3c(NC4CCCC4)nc(Cl)nc32)[C@H](O)[C@@H]1O)(C(=O)N=[S@](C)(N)=O)P(=O)(O)O [Example 1, ((2S)-1-((Amino(methyl)(oxo)-λ^6-sulfaneylidene)amino)-2-(((2R,3S,4R,5R)-5-(6-chloro-4-(cyclopentylamino)-1H-pyrazolo[3,4-d]pyrimidin-1-yl)-3,4-dihydroxytetrahydrofuran-2-yl)methoxy)-3-methoxy-1-oxopropan-2-yl)phosphonic Acid] |
